Test results: patent US4882327A, “Certain heterocyclic N-substituted carboxamides” (Beecham Group p.l.c., priority 1987, dated 1989)
Where a name gives a salt, the structure may show the parent alone.

Tested on: von Bezold-Jarisch reflex evoked by 5-HT
Assay: Antagonism of the von Bezold-Jarisch reflex evoked by 5-HT in the anesthetized rat
Format: in vivo
Settings: iv, urethane-anesthetized male rats, submaximal 5-HT (usually 6 μg/kg i.v.), heart rate changes, read-out: ED50 (dose required to reduce the 5-HT-evoked response to 50% of the control response)
Protocol: Antagonism of the von Bezold-Jarisch reflex
The compounds were evaluated for antagonism of the von Bezold-Jarisch reflex evoked by 5-HT in the anesthetized rat according to the following method
Male rats 250-350 g, were anesthetized with urethane (1.25 g/kg intraperitoneally) and blood pressure and heart rate recorded as described by Fozard J. R. et al., J. Cardiovasc Pharmacol 2, 229-245 (1980). A submaximal dose of 5-HT (usually 6 μg/kg) was given repeatedly by the intravenous route and changes in heart rate quantified Compounds were given intravenously and the concentration required to reduce the 5-HT-evoked response to 50% of the control response (ED50) was then determined.

SMILES	ED50 [µg/kg]
CCc1nc(C(=O)NC2CC3CCCC(C2)N3C)c2ccccn12 (centres unmarked) [Compound 8]	0.5
CN1C2CCC1CC(NC(=O)C1=CC(C)(C)c3ccccc31)C2 (stereo not drawn) [Compound 13, (endo)-N-(8-Methyl-8-azabicyclo[3.2.11]octan-3-yl)-3,3-dimethylindene-1-carboxamide monohydrochloride]	1.1
CCc1cc(C(=O)NC2CC3CCC(C2)N3C)c2ccccn12 (stereo not drawn) [Compound 2, (endo)-N-(8-Methyl-8-azabicyclo[3.2.1]oct-3-yl)-3-ethylindolizin-1-carboxamide]	0.24
CN1C2CCC1CC(NC(=O)c1ccc3cccccc1-3)C2 (stereo not drawn) [Compound 17, (endo)-N-(8-Methyl-8-azabicyclo[3.2.1]octan-3-yl)azulene-1-carboxamide]	13
CCc1nc(C(=O)NC2CC3CCC(C2)N3C)c2ccccn12 (stereo not drawn) [Compound 9, (endo)-N-(8-Methyl-8-azabicyclo[3,2,1]oct-3-yl)-3ethylimidazo[1,5-a]plyridin-1-carboxamide]	1
